Values quoted from earlier work as cited in patent US20050249795A1, “Gemcitabine compositions for better drug delivery” (NEOPHARM, INC., priority 2002, published 2005).
Structures can show the parent of a compound that is named as a salt.

Key:
[1] = in patients
[2] = test system: LX-1 human lung xenografts; conditions: in vivo, LX-1 human lung xenograft
[3] = test system: Lewis lung murine xenograft
[4] = test system: CEM T lymphoblastoid cells
NCI-H460 xenografts = conditions: in vivo, NCI-H460 xenograft
NCI-H520 xenografts = conditions: in vivo, NCI-H520 xenograft
[5] = test system: CALU-6 human lung xenografts; conditions: in vivo, CALU-6 human lung xenograft

Compound: Nc1ccn([C@@H]2O[C@H](CO)[C@@H](O)C2(F)F)c(=O)n1 [Gemcitabine HCL, gemcitabine hydrochloride]
- half-life [1]: very short half-life

Compound: Nc1ccn([C@@H]2O[C@H](CO)[C@@H](O)C2(F)F)c(=O)n1 [Gemcitabine]
- activity in combination with cisplatin [2]: showed activity
- interaction with cisplatin [3]: synergistic
- internucleosomal DNA fragmentation [4]: induces internucleosomal DNA fragmentation
- activity in combination with cisplatin (NCI-H460 xenografts): minimal activity
- activity in combination with cisplatin (NCI-H520 xenografts): minimal activity
- activity with cisplatin in vitro: dose-dependent synergistic activity
- activity in combination with cisplatin [5]: showed activity
